The assay concerns DOHH2 cells. Description: Cell proliferation assay (MTS), DOHH2 cells, 120 h. The format is cell-based. The conditions noted are these: Homo sapiens, DOHH-2, 120 h. From the text:
Cell Proliferation Assays
MTS testing kit was purchased from Promega. The RPMI-1640, Fetal bovine serum and Penicillin-Streptomycin were purchased from Gibco. Dimethyl sulfoxide (DMSO) was purchased from Sigma.
To investigate whether a compound is able to inhibit the activity of BCL-2 in cells, a mechanism-based assay using DOHH2 (DSMZ No.® ACC 47) and RS4;11 (ATCC® CRL-1873™) cell was developed. In this assay, inhibition of Bcl-2 was detected by the inhibition of DOHH2 cells proliferation. DOHH2 cells were cultured in culture flasks to 40-80% confluence in RPMI-1640 plus 10% fetal bovine serum. Cells were collected and plated onto 96-well plates at desired cell density (5000 cells/well). Plates were incubated overnight at 37° C., with 5% CO2 to adhere. Compounds were added to the plates, and the final compound concentrations were 10000, 3333, 1111, […], 124, 41, 14, 4.6 and 1.5 nM. Plates plated with DOHH2 or RS4;11 cells were placed at 37° C., with 5% CO2 for 120 h (DOHH2) or 72 h (RS4;11) respectively. 20 μl MTS/100 μl medium mixture solution were added to each well and incubate the plates for exactly 2 hours. The reaction was stopped by adding 25 μl 10% SDS per well. Measure absorbance at 490 nm and 650 nm (reference wavelength). IC50 was calculated using GraphPad Prism 5.0.
Select compounds prepared as described above were assayed according to the biological procedures described herein.
The IC50 is the midpoint of a concentration-inhibition curve. Low readings indicate higher potency, high ones lower potency. As to `CC1(C)CCC(CN2CCN(c3ccc(C(=O)NS(=O)(=O)c4cc5c(c([N+](=O)[O-])c4)N[C@H](CN4CCC(C)(O)CC4)C5)c(Oc4cnc5[nH]ccc5c4)c3)CC2)=C(c2ccc(Cl)cc2)C1` [Example 1-4, (S)-2-((1H-pyrrolo[2,3-b]pyridin-5-yl)oxy)-4-(4-((4′-chloro-5,5-dimethyl-3,4,5,6-tetra-hydro-[1,1′-biphenyl]-2-yl)methyl)piperazin-1-yl)-N-((2-((4-hydroxy-4-methylpiperidin-1-yl)methyl)-7-nitroindolin-5-yl)sulfonyl) benzamide], the IC50 is 308 nM.
`CC1(C)CCC(CN2CCN(c3ccc(C(=O)NS(=O)(=O)c4cc5c(c([N+](=O)[O-])c4)N[C@H](CO)C5)c(Oc4cnc5[nH]ccc5c4)c3)CC2)=C(c2ccc(Cl)cc2)C1` [Example 1-6, (S)-2-((1H-pyrrolo[2,3-b]pyridin-5-yl)oxy)-4-(4-((4′-chloro-5,5-dimethyl-3,4,5,6-tetra-hydro-[1,1′-biphenyl]-2-yl)methyl)piperazin-1-yl)-N-((2-(hydroxymethyl)-7-nitroindolin-5-yl)sulfonyl)benzamide]: the IC50 worked out at 221 nM. The IC50 values of the last two compounds are within 1.5-fold of each other.
The same measure for `CC1(C)CCC(CN2CCN(c3ccc(C(=O)NS(=O)(=O)c4cc5c(c([N+](=O)[O-])c4)N[C@H](CCO)C5)c(Oc4cnc5[nH]ccc5c4)c3)CC2)=C(c2ccc(Cl)cc2)C1` [Example 1-20, (S)-2-((1H-pyrrolo[2,3-b]pyridin-5-yl)oxy)-4-(4-((4′-chloro-5,5-dimethyl-3,4,5,6-tetra-hydro-[1,1′-biphenyl]-2-yl)methyl)piperazin-1-yl)-N-((2-(2-hydroxyethyl)-7-nitro-indolin-5-yl)sulfonyl)benzamide]: 170 nM; for `CC1(C)CCC(CN2CCN(c3ccc(C(=O)NS(=O)(=O)c4cc([N+](=O)[O-])c5nc(CN6CCOCC6)[nH]c5c4)c(Oc4cnc5[nH]ccc5c4)c3)CC2)=C(c2ccc(Cl)cc2)C1` [Example 1-27, 2-((1H-pyrrolo[2,3-b]pyridin-5-yl)oxy)-4-(4-((4′-chloro-5,5-dimethyl-3,4,5,6-tetrahydro-[1,1′-biphenyl]-2-yl)methyl)piperazin-1-yl)-N-((2-(morpholinomethyl)-4-nitro-1H-benzo[d]imidazol-6-yl)sulfonyl)benzamide]: 51 nM; for `CN1CCN(C[C@@H]2COc3cc(S(=O)(=O)NC(=O)c4ccc(N5CCN(CC6=C(c7ccc(Cl)cc7)CC(C)(C)CC6)CC5)cc4Oc4cnc5[nH]ccc5c4)cc([N+](=O)[O-])c3N2)CC1` [Example 2-4, (R)-2-((1H-pyrrolo[2,3-b]pyridin-5-yl)oxy)-4-(4-((4′-chloro-5,5-dimethyl-3,4,5,6-tetra-hydro-[1,1′-biphenyl]-2-yl)methyl)piperazin-1-yl)-N-((3-((4-methylpiperazin-1-yl)meth-yl)-5-nitro-3,4-dihydro-2H-benzo[b][1,4]oxazin-7-yl)sulfonyl)benzamide]: 139 nM.
For `CC1(C)CCC(CN2CCN(c3ccc(C(=O)NS(=O)(=O)c4cc5c(c([N+](=O)[O-])c4)N[C@H](CCNC(=O)C4CCOCC4)CO5)c(Oc4cnc5[nH]ccc5c4)c3)CC2)=C(c2ccc(Cl)cc2)C1` [Example 2-57, (R)-N-(2-(7-(N-(2-((1H-pyrrolo[2,3-b]pyridin-5-yl)oxy)-4-(4-((4′-chloro-5,5-dimethyl-3,4,5,6-tetrahydro-[1,1′-biphenyl]-2-yl)meth-yl)piperazin-1-yl)benzoyl)sulfamoyl)-5-nitro-3,4-dihydro-2H-benzo[b][1,4]oxazin-3-yl)ethyl)tetrahydro-2H-pyran-4-carboxamide] the value was 392 nM; for `CC1(C)CCC(CN2CCN(c3ccc(C(=O)NS(=O)(=O)c4cc5c(c([N+](=O)[O-])c4)N[C@@H](CCNC(=O)N4CCOCC4)CO5)c(Oc4cnc5[nH]ccc5c4)c3)CC2)=C(c2ccc(Cl)cc2)C1` [Example 2-58, (S)-N-(2-(7-(N-(2-((1H-pyrrolo[2,3-b]pyridin-5-yl)oxy)-4-(4-((4′-chloro-5,5-dimethyl-3,4,5,6-tetrahydro-[1,1′-biphenyl]-2-yl)meth-yl)piperazin-1-yl)benzoyl)sulfamoyl)-5-nitro-3,4-dihydro-2H-benzo[b][1,4]oxazin-3-yl)ethyl)morpholine-4-carboxamide], 868 nM.
The same measure for `CC1(C)CCC(CN2CCN(c3ccc(C(=O)NS(=O)(=O)c4cc5c(c([N+](=O)[O-])c4)N[C@H](CCNC(=O)N4CCOCC4)CO5)c(Oc4cnc5[nH]ccc5c4)c3)CC2)=C(c2ccc(Cl)cc2)C1` [Example 2-59]: 730 nM; for `CC(=O)NCC[C@@H]1COc2cc(S(=O)(=O)NC(=O)c3ccc(N4CCN(CC5=C(c6ccc(Cl)cc6)CC(C)(C)CC5)CC4)cc3Oc3cnc4[nH]ccc4c3)cc([N+](=O)[O-])c2N1` [Example 2-62, (R)-2-((1H-pyrrolo[2,3-b]pyridin-5-yl)oxy)-N-((3-(2-acetamidoethyl)-5-nitro-3,4-di-hydro-2H-benzo[b][1,4]oxazin-7-yl)sulfonyl)-4-(4-((4′-chloro-5,5-dimethyl-3,4,5,6-tetra-hydro-[1,1′-biphenyl]-2-yl)methyl)piperazin-1-yl)benzamide]: 230 nM.
As for `CC1(C)CCC(CN2CCN(c3ccc(C(=O)NS(=O)(=O)c4cc5c(c([N+](=O)[O-])c4)N[C@@H](CNS(=O)(=O)N4CCOCC4)CO5)c(Oc4cnc5[nH]ccc5c4)c3)CC2)=C(c2ccc(Cl)cc2)C1` [Example 2-67, (S)-2-((1H-pyrrolo[2,3-b]pyriidn-5-yl)oxy)-4-(4-((4′-chloro-5,5-dimethyl-3,4,5,6-tetra-hydro-[1,1′-biphenyl]-2-yl)methyl)piperazin-1-yl)-N-((3-((morpholine-4-sulfonamido)methyl)-5-nitro-3,4-dihydro-2H-benzo[b] [1,4]oxazin-7-yl)sulfonyl)benzamide], half-maximal inhibition (IC50) required 1320 nM.
For `CC1(C)CCC(CN2CCN(c3ccc(C(=O)NS(=O)(=O)c4cc5c(c([N+](=O)[O-])c4)N[C@@H](CN=S4(=O)CCCC4)CO5)c(Oc4cnc5[nH]ccc5c4)c3)CC2)=C(c2ccc(Cl)cc2)C1` [Example 2-76, (S)-2-((1H-pyrrolo[2,3-b]pyridin-5-yl)oxy)-4-(4-((4′-chloro-5,5-dimethyl-3,4,5,6-tetra-hydro-[1,1′-biphenyl]-2-yl)methyl)piperazin-1-yl)-N-((5-nitro-3-(((1-oxidotetrahydro-1λ^6-thiophen-1-ylidene)amino)methyl)-3,4-dihydro-2H-benzo[b][1,4]oxazin-7-yl)sulfo-nyl)benzamide] the value was 120 nM; for `C[C@H]1COCCN1C[C@H]1COc2cc(S(=O)(=O)NC(=O)c3ccc(N4CCN(CC5=C(c6ccc(Cl)cc6)CC(C)(C)CC5)CC4)cc3Oc3cnc4[nH]ccc4c3)cc([N+](=O)[O-])c2N1` [Example 2-85, 2-((1H-pyrrolo[2,3-b]pyridin-5-yl)oxy)-4-(4-((4′-chloro-5,5-dimethyl-3,4,5,6-tetra-hydro-[1,1′-biphenyl]-2-yl)methyl)piperazin-1-yl)-N-(((S)-3-(((S)-3-methylmorpholino)meth-yl)-5-nitro-3,4-dihydro-2H-benzo[b][1,4]oxazin-7-yl)sulfonyl)benzamide], 434 nM.

The values are drawn from US11091478B2 (Fochon Pharmaceuticals, Ltd., priority 2017, dated 2021).
